Source: patent US9144579B2, “Polyesters and methods of use thereof” (Rutgers, The State University of New Jersey, priority 2012, dated 2015)
Like-named read-outs stand apart in the source and are kept apart here.

What was measured:
[1] = Structure determination of released drugs (1H-NMR of day 5 release media); type: physicochemical; conditions: released at day 5, 1H-NMR chemical shifts and integration
Protocol: Release media from day 5 (time point with the highest drug concentration) were freeze-dried for 24 h at −40° C. and 133×10^−3 mBar (LABCONO Freeze Dry System/Freezon 4.5). The resulting white powder was dissolved in acidic water (5 mL, pH˜1) and extracted with DCM (5×3 mL). DCM was evaporated under reduced pressure and the samples dried under vacuum for 2 days. Solutions of the free drugs (1 and 2) were prepared and treated as described above for the release media. ^1H-NMR spectroscopy was used to confirm the chemical structures of the released drugs.

[2] = system: NCTC clone 929 (strain L) mouse areolar fibroblast cells (L929 cells); conditions: 0.5% DMSO
Protocol: Polymers and diacids were separately dissolved in dimethyl sulfoxide (DMSO) and diluted with cell media to reach concentrations of 0.10 and 0.05 mg/mL. These solutions were sterilized under UV at λ=254 nm for 900 s (Spectronics Corporation, Westbury, N.Y.) and then allocated to wells in a 96-well plate with 2000 cells/well. DMSO (0.5%) in cell media was used as negative control.
Cell viability was determined using CellTiter 96® Aqueous One Solution Cell Proliferation Assay. After 24 h, 48 h, and 72 h incubation with polymers or diacids, 20 μL of (3-(4,5-dimethylthiazol-2-yl)-5-(3-carboxymethoxyphenyl)-2-(4-sulfophenyl)-2H-tetrazolium) (MTS) reagent was added to each well and further incubated for 2 h at 37° C. The absorbance was then recorded with a microplate reader (Coulter, Boulevard Brea, Calif.) at 492 nm.

| chemical structure of drug released from polymer versus free drug [1] | Structure (SMILES) | cell proliferation / viability ([2]; 0.05 mg/mL, 24, 48 and 72 h) | cell proliferation / viability ([2]; 0.10 mg/mL, 24, 48 and 72 h) |
| --- | --- | --- | --- |
| preserved | COc1ccc2cc([C@H](C)C(=O)O)ccc2c1 [compound 2, naproxen] | – | – |
| – | CC(C)Cc1ccc(C(C)C(=O)OC(C(=O)O)C(OC(=O)C(C)c2ccc(CC(C)C)cc2)C(=O)O)cc1 (stereo not drawn) [6a, Ibuprofen-tartaric diacid] | normal cell proliferation | normal cell proliferation |
| – | COc1ccc2cc(C(C)C(=O)OC(C(=O)O)C(OC(=O)C(C)c3ccc4cc(OC)ccc4c3)C(=O)O)ccc2c1 (stereo not drawn) [6b, Naproxen-Tartaric Diacid] | normal cell proliferation | normal cell proliferation |
| preserved | CC(C)Cc1ccc(C(C)C(=O)O)cc1 (stereo not drawn) [compound 1, ibuprofen] | – | – |
